ChEMBL document CHEMBL1134668, “Hydrazinonaphthalene and azonaphthalene thrombopoietin mimics are nonpeptidyl promoters of megakaryocytopoiesis” (J Med Chem, 2001)
pEC50: −log10 of the molar value.

Experiments:
[1] = biological target: T1, Thrombopoietin receptor (Homo sapiens) (UniProt P40238); experiment: Thrombopoietin luciferase activity in BAF-3 cells; assay type: cell-based; details: BaF3
T1 sequence (whole entry): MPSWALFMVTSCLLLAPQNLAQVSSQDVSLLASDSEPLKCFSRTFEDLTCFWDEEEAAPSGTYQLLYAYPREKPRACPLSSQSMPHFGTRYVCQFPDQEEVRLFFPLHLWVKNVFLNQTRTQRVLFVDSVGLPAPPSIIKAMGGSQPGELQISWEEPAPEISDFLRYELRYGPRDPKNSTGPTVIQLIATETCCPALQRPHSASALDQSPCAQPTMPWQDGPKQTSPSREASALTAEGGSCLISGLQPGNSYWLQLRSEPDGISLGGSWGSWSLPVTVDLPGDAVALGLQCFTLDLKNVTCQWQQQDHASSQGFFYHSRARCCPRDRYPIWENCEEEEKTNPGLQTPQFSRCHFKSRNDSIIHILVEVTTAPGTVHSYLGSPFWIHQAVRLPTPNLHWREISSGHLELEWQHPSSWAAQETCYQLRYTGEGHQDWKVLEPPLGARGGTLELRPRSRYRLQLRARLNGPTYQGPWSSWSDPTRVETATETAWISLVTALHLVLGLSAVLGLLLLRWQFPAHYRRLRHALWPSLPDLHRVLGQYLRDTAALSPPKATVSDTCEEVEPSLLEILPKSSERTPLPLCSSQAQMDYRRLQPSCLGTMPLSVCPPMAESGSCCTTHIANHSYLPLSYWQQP

[2] = biological target: T2, Thrombopoietin receptor (Homo sapiens, UniProt P40238); experiment: Effective concentration for thrombopoietin luciferase activity was determined in BAF-3 cells; assay type: cell-based, BaF3
T2 sequence (P40238 whole entry): T1 sequence (whole entry)

Row | Structure (SMILES) | Efficacy [1] | pEC50 [2]
1 | Cc1[nH]n(-c2ccc(C(=O)O)cc2)c(=O)c1/N=N/c1c(O)cc(S(=O)(=O)O)c2ccccc12 | < 5% | 
2 | O=S(=O)(O)c1cc(O)c(/N=N/c2c(O)c(O)cc3ccccc23)c2ccccc12 | 26% | 5.70
3 | O=C(O)c1cccc2c(/N=N/c3c(O)cc(S(=O)(=O)O)c4ccccc34)c(O)ccc12 | < 5% | 
4 | O=S(=O)(O)c1cc(O)c(NCc2c(O)ccc3ccccc23)c2ccccc12 | < 5% | 
5 | Cc1ccc(O)c(/N=N/c2c(O)cc(S(=O)(=O)O)c3ccccc23)c1 | 28% | 5.52
6 | O=S(=O)(O)c1ccc(/N=N/c2c(O)ccc3ccccc23)c2ccccc12 | < 5% | 
7 | Oc1ccc2ccccc2c1/N=N/c1c(O)ccc2ccccc12 | < 5% | 
8 | O=S(=O)(O)c1cc(O)c(/N=N/c2ccc3ccccc3c2O)c2ccccc12 | 87% | 7.15
9 | CCOc1nn(-c2ccc(C)c(C)c2)c(O)c1/N=N/c1c(O)cc(S(=O)(=O)O)c2ccccc12 | 80% | 6.22
10 | Cc1[nH]n(-c2ccc(F)cc2)c(=O)c1/N=N/c1c(O)cc(S(=O)(=O)O)c2ccccc12 | 39% | 6.30
11 | Cc1[nH]n(-c2ccc([N+](=O)[O-])cc2)c(=O)c1/N=N/c1c(O)cc(S(=O)(=O)O)c2ccccc12 | 63% | 6.40
12 | Cc1[nH]n(-c2ccccc2)c(=O)c1/N=N/c1c(O)cc(C(=O)O)c2ccccc12 | 21% | 5.30
13 | CCOC(=O)c1[nH]n(-c2ccc(C(C)(C)C)cc2)c(=O)c1/N=N/c1c(O)cc(S(=O)(=O)O)c2ccccc12 | 56% | 5.70
14 | Cc1[nH]n(-c2ccccc2)c(=O)c1/N=N/c1c(O)cc(S(=O)(=O)O)c2ccccc12 | 26% | 5.70
15 | Cc1[nH]n(C(C)(C)C)c(=O)c1/N=N/c1c(O)cc(S(=O)(=O)O)c2ccccc12 | < 5% | 
16 | Cc1ccc(-n2[nH]cc(/N=N/c3c(O)cc(S(=O)(=O)O)c4ccccc34)c2=O)cc1C | 95% | 7.00
17 | Cc1[nH]n(-c2ccc(S(=O)(=O)O)cc2)c(=O)c1/N=N/c1c(O)cc(S(=O)(=O)O)c2ccccc12 | < 5% | 
18 | O=S(=O)(O)c1cc(O)c(/N=N/c2c(O)ccc3ccc(O)cc23)c2ccccc12 | 31% | 5.70
19 | Cc1[nH]n(Cc2ccccc2)c(=O)c1/N=N/c1c(O)cc(S(=O)(=O)O)c2ccccc12 | 32% | < 4.52
20 | Cc1[nH]n(-c2cccc(C(C)(C)C)c2)c(=O)c1/N=N/c1c(O)cc(S(=O)(=O)O)c2ccccc12 | 71% | 7.15
21 | Cc1[nH]n(-c2cccc([N+](=O)[O-])c2)c(=O)c1/N=N/c1c(O)cc(S(=O)(=O)O)c2ccccc12 | 28% | 6.52
22 | Cc1ccc(-n2[nH]c(C)c(/N=N/c3c(O)cc(C(=O)O)c4ccccc34)c2=O)cc1 | 47% | 5.70
23 | O=S(=O)(O)c1cc(O)c(/N=N/c2c(O)ccc3cc(O)ccc23)c2ccccc12 | 16% | 5.70
24 | CC(C)(C)OC(=O)c1[nH]n(-c2ccc(C(C)(C)C)cc2)c(=O)c1/N=N/c1c(O)cc(S(=O)(=O)O)c2ccccc12 | 32% | 6.70
25 | O=S(=O)(O)c1cc(O)c(/N=N/c2c(O)cc(O)c3ccccc23)c2ccccc12 | 16% | 5.30
26 | Cc1[nH]n(-c2ccccc2Cl)c(=O)c1/N=N/c1c(O)cc(S(=O)(=O)O)c2ccccc12 | 6% | < 4.52
27 | Cc1[nH]n(C)c(=O)c1/N=N/c1c(O)cc(S(=O)(=O)O)c2ccccc12 | < 5% | 

Row | Structure (SMILES) | Efficacy [1] | pEC50 [2]
28 | Cc1ccc(-n2[nH]c(C(C)(C)C)c(/N=N/c3c(O)cc(S(=O)(=O)O)c4ccccc34)c2=O)cc1C | 72% | 6.52
29 | Cc1[nH]n(-c2ccc(OCc3ccccc3)cc2)c(=O)c1/N=N/c1c(O)cc(S(=O)(=O)O)c2ccccc12 | 34% | 6.70
30 | Cc1[nH]n(-c2ccc(C(C)C)cc2)c(=O)c1/N=N/c1c(O)cc(S(=O)(=O)O)c2ccccc12 | 100% | 7.15
31 | Cc1[nH]n(-c2ccc(S(C)(=O)=O)cc2)c(=O)c1/N=N/c1c(O)cc(S(=O)(=O)O)c2ccccc12 | 18% | 5.52
32 | Cc1[nH]n(-c2ccc(O)cc2)c(=O)c1/N=N/c1c(O)cc(S(=O)(=O)O)c2ccccc12 | < 5% | 
33 | Cc1[nH]n(CCO)c(=O)c1/N=N/c1c(O)cc(S(=O)(=O)O)c2ccccc12 | < 5% | 
34 | O=S(=O)(O)c1cc(O)c(/N=N/c2ccc(O)c3ccc(O)cc23)c2ccccc12 | < 5% | 
35 | Cc1[nH]n(-c2cc(Cl)c(S(=O)(=O)O)cc2Cl)c(=O)c1/N=N/c1c(O)cc(S(=O)(=O)O)c2ccccc12 | < 5% | 
36 | Cc1cccc(-n2[nH]c(C)c(/N=N/c3c(O)cc(S(=O)(=O)O)c4ccccc34)c2=O)c1 | 34% | 6.15
37 | Cc1ccc(-n2[nH]c(-c3ccccc3)c(/N=N/c3c(O)cc(S(=O)(=O)O)c4ccccc34)c2=O)cc1C | 92% | 6.05
38 | CC(C)(C)c1ccc(-n2[nH]c(N)c(/N=N/c3c(O)cc(S(=O)(=O)O)c4ccccc34)c2=O)cc1 | 87% | 5.30
39 | CCNS(=O)(=O)c1cccc(-n2[nH]c(C)c(/N=N/c3c(O)cc(S(=O)(=O)O)c4ccccc34)c2=O)c1 | 25% | 5.00
40 | Cc1ccccc1-n1[nH]c(C)c(/N=N/c2c(O)cc(S(=O)(=O)O)c3ccccc23)c1=O | 30% | 5.00
41 | O=S(=O)(O)c1cc(O)c(/N=N/c2c(O)c3ccccc3c3ccccc23)c2ccccc12 | 61% | 6.70
42 | Cc1n[nH]c(O)c1/N=N/c1c(O)cc(S(=O)(=O)O)c2ccccc12 | < 5% | 
43 | COc1cc(O)c2ccccc2c1/N=N/c1c(O)cc(S(=O)(=O)O)c2ccccc12 | 19% | 5.52
44 | O=[N+]([O-])c1cc(O)c(/N=N/c2c(O)ccc3ccccc23)c2ccccc12 | < 5% | 
45 | COc1ccc2ccc(O)c(/N=N/c3c(O)cc(S(=O)(=O)O)c4ccccc34)c2c1 | 85% | 6.52
46 | CC(C)(C)c1ccc(-n2[nH]c(C(=O)O)c(/N=N/c3c(O)cc(S(=O)(=O)O)c4ccccc34)c2=O)cc1 | < 5% | 
47 | Cc1ccc(-n2[nH]c(C)c(/N=N/c3c(O)cc(C(=O)O)c4ccccc34)c2=O)cc1C | 24% | 6.00
48 | O=C(O)c1cc2ccccc2c(/N=N/c2c(O)cc(S(=O)(=O)O)c3ccccc23)c1O | 48% | 5.00
49 | O=C(Nc1c(O)cc(S(=O)(=O)O)c2ccccc12)c1c(O)ccc2ccccc12 | < 5% | 
50 | Cc1[nH]n(-c2ccccn2)c(=O)c1/N=N/c1c(O)cc(S(=O)(=O)O)c2ccccc12 | 24% | 5.15
51 | Cc1[nH]n(-c2ccccc2[N+](=O)[O-])c(=O)c1/N=N/c1c(O)cc(S(=O)(=O)O)c2ccccc12 | 19% | 5.10
52 | O=S(=O)(O)c1cc(O)c(/N=C/c2c(O)ccc3ccccc23)c2ccccc12 | < 5% | 
53 | Cc1[nH]n(-c2cc(S(=O)(=O)O)ccc2Cl)c(=O)c1/N=N/c1c(O)cc(S(=O)(=O)O)c2ccccc12 | < 5% | 
